Results taken from patent US10611740B2, “Aryl dihydro-2H-benzo[b][1,4]oxazine sulfonamide and related compounds for use as agonists of RORγ and the treatment of disease” (Lycera Corporation, priority 2015, dated 2020).
pEC50: −log10 of the molar value.

What was measured:
Gal4-RORγ-LBD = target: T1, Gal4-RORγ-LBD (Homo sapiens, UniProt P51449); assay: Gal4-RORγ Luciferase Reporter Assay in HEK-293T Cells; type: cell-based; conditions: HEK-293 cells
T1 construct: expressed in transfected cells; host or cells: HEK-293 cells (pcDNA3.1neo plasmid)
T1 sequence (P51449 269-508 limits assumed): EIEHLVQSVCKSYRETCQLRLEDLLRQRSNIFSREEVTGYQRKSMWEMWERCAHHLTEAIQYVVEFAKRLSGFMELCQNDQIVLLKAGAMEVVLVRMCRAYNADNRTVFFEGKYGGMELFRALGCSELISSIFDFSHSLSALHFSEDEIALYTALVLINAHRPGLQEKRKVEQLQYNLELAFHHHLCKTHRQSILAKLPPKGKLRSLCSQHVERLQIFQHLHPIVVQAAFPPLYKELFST
How it was run: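 HEK-293 cells were transiently co-transfected with Gal4-RORγ-LBD and pGL4.31 Gal4-luciferase, with ursolic acid added at 2 μM final. Compounds were incubated overnight at 37° C. in 0.2% DMSO and luminescence read with One-Glo. Max Response is the upper plateau of a 4-parameter logistic fit, with signal lacking ursolic acid or compound set to 100.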

RORγ-LBD = target: T2, RORγ-LBD (Homo sapiens, UniProt P51449); assay: RORγ-Ligand Binding Domain (LBD) TR-FRET Assay; type: biochemical;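 on TR-FRET Assay Max Response: 665/615 nm ratio relative to signal without ursolic acid or compound set at 100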
T2 construct: made in house; host or cells: SF9 cells (baculovirus)
T2 sequence (P51449 269-508 limits assumed): T1 sequence (P51449 269-508 limits assumed)
How it was run: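 His-tagged RORγ-LBD from SF9 baculovirus lysate, ~3 nM final, in 50 mM Tris pH 7.0, 50 mM KCl, 1 mM EDTA, 0.1 mM DTT, 0.01% BSA. Biotinylated SRC1 LXXLL peptide at 200 nM final with 2 μM ursolic acid; TR-FRET read-out, 1% DMSO final.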

[1] = luciferase reporter, with 2 μM ursolic acid

Structure (SMILES) | pEC50 (Gal4-RORγ-LBD; [1]) | Gal4-RORγ Assay Max Response (Gal4-RORγ-LBD; [1]) | pEC50 (RORγ-LBD) | TR-FRET Assay Max Response (RORγ-LBD) | pEC50 (Gal4-RORγ-LBD; 2 μM ursolic acid) | Gal4-RORγ Assay Max Response (Gal4-RORγ-LBD; 2 μM ursolic acid)
CN(C)c1cccc(-c2ccc3c(c2)N(S(=O)(=O)c2cccc(C(F)(F)F)c2)C[C@H](CC(C)(C)C(=O)O)O3)n1 [Compound 32D, (S)-3-(6-(6-(dimethylamino)-pyridin-2-yl)-4-((3-(trifluoromethyl)phenyl)sulfonyl)-3,4-dihydro-2H-benzo[b][1,4]oxazin-2-yl)-2,2-dimethylpropanoic acid] | > 6.30 | ** (The symbol “**” indicates a value in the range of greater than 90 to 150) | > 6.30 | **** (The symbol “****” indicates a value greater than 200) | – | –
CC(C)(C[C@H]1CN(S(=O)(=O)c2cccc(C(F)(F)F)c2)c2cc(-c3cccc(C(F)(F)F)n3)ccc2O1)C(=O)O [Compound 32E, (S)-2,2-dimethyl-3-(4-((3-(trifluoromethyl)phenyl)sulfonyl)-6-(6-(trifluoromethyl)pyridin-2-yl)-3,4-dihydro-2H-benzo[b][1,4]oxazin-2-yl)propanoic acid] | > 6.30 | ** (The symbol “**” indicates a value in the range of greater than 90 to 150) | > 6.30 | **** (The symbol “****” indicates a value greater than 200) | – | –
CC(C)(C[C@H]1CN(S(=O)(=O)c2cccc(C(F)(F)F)c2)c2cc(-c3cccc(OC(F)(F)F)c3)ccc2O1)C(=O)O [Compound 32F, (S)-2,2-dimethyl-3-(6-(3-(trifluoromethoxy)phenyl)-4-((3-(trifluoromethyl)phenyl)sulfonyl)-3,4-dihydro-2H-benzo[b][1,4]oxazin-2-yl)propanoic acid] | > 6.30 | ** (The symbol “**” indicates a value in the range of greater than 90 to 150) | > 6.30 | **** (The symbol “****” indicates a value greater than 200) | – | –
CC(C)(C[C@H]1CN(S(=O)(=O)c2cccc(C(F)(F)F)c2)c2cc(-c3cccc(OC(F)F)c3)ccc2O1)C(=O)O [Compound 32G, (S)-3-(6-(3-(difluoromethoxy)-phenyl)-4-((3-(trifluoromethyl)-phenyl)sulfonyl)-3,4-dihydro-2H-benzo[b][1,4]oxazin-2-yl)-2,2-dimethylpropanoic acid] | > 6.30 | ** (The symbol “**” indicates a value in the range of greater than 90 to 150) | > 6.30 | *** (The symbol “***” indicates a value in the range of greater than 150 to 200) | – | –
CC(C)(C[C@H]1CN(S(=O)(=O)c2cccc(C(F)(F)F)c2)c2cc(-c3cccc(F)c3Cl)ccc2O1)C(=O)O [Compound 32H, (S)-3-(6-(2-chloro-3-fluorophenyl)-4-((3-(trifluoromethyl)phenyl)sulfonyl)-3,4-dihydro-2H-benzo[b][1,4]oxazin-2-yl)-2,2-dimethylpropanoic acid] | 5.30 to 6.30 | ** (The symbol “**” indicates a value in the range of greater than 90 to 150) | > 6.30 | **** (The symbol “****” indicates a value greater than 200) | – | –
CC(C)(C[C@H]1CN(S(=O)(=O)c2cccc(C(F)(F)F)c2)c2cc(-c3cc(F)ccc3Cl)ccc2O1)C(=O)O [Compound 32I, (S)-3-(6-(2-chloro-5-fluorophenyl)-4-((3-(trifluoromethyl)phenyl)sulfonyl)-3,4-dihydro-2H-benzo[b][1,4]oxazin-2-yl)-2,2-dimethylpropanoic acid] | 5.30 to 6.30 | *** (The symbol “***” indicates a value in the range of greater than 150 to 200) | > 6.30 | **** (The symbol “****” indicates a value greater than 200) | – | –
CC(C)(C[C@H]1CN(S(=O)(=O)c2cccc(C(F)(F)F)c2)c2cc(-c3cccc(F)c3F)ccc2O1)C(=O)O [Compound 32K, (S)-3-(6-(2,3-difluorophenyl)-4-((3-(trifluoromethyl)-phenyl)sulfonyl)-3,4-dihydro-2H-benzo[b][1,4]oxazin-2-yl)-2,2-dimethylpropanoic acid] | > 6.30 | ** (The symbol “**” indicates a value in the range of greater than 90 to 150) | > 6.30 | **** (The symbol “****” indicates a value greater than 200) | – | –
CC(C)(C[C@H]1CN(S(=O)(=O)c2cccc(C(F)(F)F)c2)c2cc(-c3cc(F)cc(F)c3)ccc2O1)C(=O)O [Compound 32N, (S)-3-(6-(3,5-difluorophenyl)-4-((3-(trifluoromethyl)phenyl)-sulfonyl)-3,4-dihydro-2H-benzo[b][1,4]oxazin-2-yl)-2,2-dimethylpropanoic acid] | > 6.30 | ** (The symbol “**” indicates a value in the range of greater than 90 to 150) | > 6.30 | *** (The symbol “***” indicates a value in the range of greater than 150 to 200) | – | –
CC(C)(C[C@H]1CN(S(=O)(=O)c2cccc(C(F)(F)F)c2)c2cc(-c3cccc(C(F)(F)F)c3)ccc2O1)C(=O)O [Compound 32O, (S)-2,2-dimethyl-3-(6-(3-(trifluoromethyl)phenyl)-4-((3-(trifluoromethyl)phenyl)sulfonyl)-3,4-dihydro-2H-benzo[b][1,4]oxazin-2-yl)propanoic acid] | > 6.30 | * (The symbol “*” indicates a value in the range of 25 to 90) | > 6.30 | **** (The symbol “****” indicates a value greater than 200) | – | –
CC(C)(CC[C@H]1CN(S(=O)(=O)c2cccc(C(F)(F)F)c2)c2cc(-c3cccc(C(F)(F)F)n3)ccc2O1)C(=O)O [Compound 32P, (S)-2,2-dimethyl-4-(4-((3-(trifluoromethyl)phenyl)sulfonyl)-6-(6-(trifluoromethyl)pyridin-2-yl)-3,4-dihydro-2H-benzo[b][1,4]oxazin-2-yl)butanoic acid] | > 6.30 | ** (The symbol “**” indicates a value in the range of greater than 90 to 150) | > 6.30 | *** (The symbol “***” indicates a value in the range of greater than 150 to 200) | – | –
COc1cc(OC)cc(-c2ccc3c(c2)N(S(=O)(=O)c2cccc(C(F)(F)F)c2)C[C@H](CC(C)(C)C(=O)O)O3)c1 [Compound 32Q, (S)-3-(6-(3,5-dimethoxyphenyl)-4-((3-(trifluoromethyl)phenyl)-sulfonyl)-3,4-dihydro-2H-benzo[b][1,4]oxazin-2-yl)-2,2-dimethylpropanoic acid] | > 6.30 | ** (The symbol “**” indicates a value in the range of greater than 90 to 150) | > 6.30 | **** (The symbol “****” indicates a value greater than 200) | – | –
CC(C)(C[C@H]1CN(S(=O)(=O)c2cccc(C(F)(F)F)c2)c2cc(-c3cc(Cl)cc(OC(F)F)c3)ccc2O1)C(=O)O [Compound 32R, (S)-3-(6-(3-chloro-5-(difluoro-methoxy)phenyl)-4-((3-(trifluoro-methyl)phenyl)sulfonyl)-3,4-dihydro-2H-benzo[b][1,4]oxazin-2-yl)-2,2-dimethylpropanoic acid] | > 6.30 | ** (The symbol “**” indicates a value in the range of greater than 90 to 150) | > 6.30 | *** (The symbol “***” indicates a value in the range of greater than 150 to 200) | – | –
COc1cc(S(=O)(=O)N2C[C@H](CCC(C)(C)C(=O)O)Oc3ccc(-c4cc(F)cc(OC)c4F)cc32)ccc1F [Compound 32S, (S)-4-(6-(2,5-difluoro-3-methoxyphenyl)-4-((4-fluoro-3-methoxyphenyl)sulfonyl)-3,4-dihydro-2H-benzo[b][1,4]oxazin-2-yl)-2,2-dimethylbutanoic acid] | – | – | > 6.30 | *** (The symbol “***” indicates a value in the range of greater than 150 to 200) | > 6.30 | ** (The symbol “**” indicates a value in the range of greater than 90 to 150)
CC(C)(CC[C@H]1CN(S(=O)(=O)c2cccc(OC(F)F)c2)c2cc(-c3cc(F)ccc3F)ccc2O1)C(=O)O [Compound 32T, (S)-4-(4-((3-(difluoro-methoxy)phenyl)sulfonyl)-6-(2,5-difluorophenyl)-3,4-dihydro-2H-benzo[b][1,4]oxazin-2-yl)-2,2-dimethylbutanoic acid] | – | – | > 6.30 | *** (The symbol “***” indicates a value in the range of greater than 150 to 200) | > 6.30 | ** (The symbol “**” indicates a value in the range of greater than 90 to 150)
COc1cccc(-c2ccc3c(c2)N(S(=O)(=O)c2cccc(C(F)(F)F)c2)C[C@H](CC(C)(C)C(=O)O)O3)c1OC [Compound 32V, (S)-3-(6-(2,3-dimethoxyphenyl)-4-((3-(trifluoromethyl)phenyl)-sulfonyl)-3,4-dihydro-2H-benzo[b][1,4]oxazin-2-yl)-2,2-dimethylpropanoic acid] | – | – | > 6.30 | *** (The symbol “***” indicates a value in the range of greater than 150 to 200) | > 6.30 | ** (The symbol “**” indicates a value in the range of greater than 90 to 150)
